In brackets after ≈: the same amount, converted by molar mass.
What was measured:
Pythium ultimum = assay: Fungitoxicity assay against Pythium ultimum (in vitro, mycelial dry weight); assay type: cell-based; conditions: Globisporangium ultimum, 48 hours at 25° C., read-out: Pythium EC50
Procedure: The compounds of Examples 1-20 were tested in vitro for fungicidal activity and phytotoxicity. A. The compounds were tested in vitro for fungicidal activity against Pythium ultimum, Botrytis cinerea and Venturia inaequalis. Fungitoxicity assay against Pythium ultimum: A dilution series of test compound was prepared in dimethylsulfoxide, and 0.1 milliliter (ml) of each dilution was added to 19.9 ml of a liquid asparagine-sucrose broth ([…]. and Katznelson, K., 1971, Can. J. […] Each plate was inoculated with a mycelial plug, 7 millimeters (mm) in diameter, taken from the growing edge of a culture of Pythium ultimum grown on potato dextrose agar. Two replicate plates were used for each treatment. The increase in mycelial dry weight was determined after growth for 48 hours at 25° C. with shaking on a gyrotary shaker at 60 revolutions per minute (rpm). EC50 values were calculated from dose response curves. As used herein, the terminology "EC50" means the concentration of test compound required to inhibit growth by 50% as compared to a control lacking the test compound. Results of the testing for fungicidal activity against the above named fungi are set forth below in Table 3 as Pythium EC50 (ppm), Botrytis EC50 (ppm) and Venturia MIC (ppm), respectively.

Venturia inaequalis = assay: Fungitoxicity assay against Venturia inaequalis (in vitro, microtiter MIC); assay type: cell-based; conditions: 168 h, minimum inhibitory concentration, 7 days at 25° C.
Procedure: The compounds of Examples 1-20 were tested in vitro for fungicidal activity and phytotoxicity. A. The compounds were tested in vitro for fungicidal activity against Pythium ultimum, Botrytis cinerea and Venturia inaequalis. Fungitoxicity assay against Venturia inaequalis: Test compounds were dissolved in dimethylsulfoxide at 1 milligram per milliliter (mg/ml), and 50 ul added to 950 ul of yeast extract-dextrose medium (YED, 0.4% yeast extract, 2% dextrose) to give 50 part per million (ppm) solutions. Minimum inhibitory concentration (MIC) values were determined using a microtiter assay with twofold serial dilutions of the prepared 50 ppm solutions (100 ul) in YED medium. Inoculum consisted of a spore suspension of V. inaequalis in YED medium at 2.5×10^5 spores per ml. […] Results of the testing for fungicidal activity against the above named fungi are set forth below in Table 3 as Pythium EC50 (ppm), Botrytis EC50 (ppm) and Venturia MIC (ppm), respectively.

Monilinia fructicol = assay: microbe, parasite or virus in culture; assay type: cell-based; conditions: 72 h, 3 days at room temperature, read-out: MON percent inhibition of fungal growth
Piricularia oryzae = assay: organism not typed; assay type: cell-based; conditions: 72 h, read-out: PIR percent inhibition of fungal growth
[1] = test system: Pseudocercosporella herpotrichoides; assay: microbe, parasite or virus in culture; assay type: cell-based; conditions: Oculimacula yallundae, 72 h, 3 days at room temperature, read-out: PSH percent inhibition of fungal growth
Cercospora arachidicola = assay: Peanut Cercospora (PC); conditions: in vivo
cucumber plants = assay: In vivo phytotoxic activity, foliar spray, cucumber; design: key: +: indicating presence of a plant growth regulatory effect as compared to a control to which a solvent mixture (acetone/water/methanol) lacking the test compound was applied; 0: A zero indicates no apparent effect; conditions: foliar spray 2200 g/Ha, seven days after application
Procedure: (§1) The compounds of Examples 1 and 12 were tested in vivo for phytotoxic activity by applying the compounds to the foliage of cucumber, tomato, bean, lettuce and strawberry plants as a spray at a rate of 2200 g/Ha. The plants were evaluated seven days after spray application of the compounds.
(§2) Phototoxicity scores are set forth below in Table 6. The phytotoxicity scores use a symbol, "+", indicating presence of a plant growth regulatory effect as compared to a control to which a solvent mixture (acetone/water/methanol) lacking the test compound was applied. A zero indicates no apparent effect. Each score is a composite representing the mode value for three replicate plants.

bean plants = assay: In vivo phytotoxic activity, foliar spray, bean; design: key: +: indicating presence of a plant growth regulatory effect as compared to a control to which a solvent mixture (acetone/water/methanol) lacking the test compound was applied; 0: A zero indicates no apparent effect; conditions: foliar spray 2200 g/Ha, seven days after application
Procedure: as §1, §2

strawberry plants = assay: In vivo phytotoxic activity, foliar spray, strawberry; design: key: +: indicating presence of a plant growth regulatory effect as compared to a control to which a solvent mixture (acetone/water/methanol) lacking the test compound was applied; 0: A zero indicates no apparent effect; conditions: foliar spray 2200 g/Ha, seven days after application
Procedure: as §1, §2

In the case of `CCC(C)(NC(=O)c1cc(C)cc(C=NOC)c1)C(=O)CCl` (stereo not drawn) [Example 12, N-[3'-(1'-chloro-3'-methyl-2'-oxopentan)]-3-methoxyiminomethyl-5-methylbenzamide], the IC50 (Pythium ultimum) is reported as 0.16 µg/mL (≈ 0.493 µM), the MIC (Venturia inaequalis) is reported as 0.1 µg/mL (≈ 0.308 µM) and the inhibition at 25 ppm (Monilinia fructicol) is reported as 100%. The inhibition at 25 ppm (Piricularia oryzae) was 100%, the inhibition at 25 ppm [1] was 100% and the “PC percent disease control” value (Cercospora arachidicola) was 80%. For the same molecule, the “phytotoxicity score, Cucumber” value (cucumber plants) was 0, the “phytotoxicity score, Bean” value (bean plants) was 0 and the “phytotoxicity score, Strawberry” value (strawberry plants) was 0.

From patent US5254584A, “N-acetonylbenzamides and their use as fungicides” (Rohm and Haas Company, priority 1992, dated 1993)
